{"source": "patent US8912219B2", "about": "“Aryl sulfamide and sulfamate derivatives as RORc modulators” (Genentech, Inc., priority 2013, dated 2014)", "target": "RORc ligand binding domain (Homo sapiens (Human), UniProt P51449)", "sequence (P51449 269-508)": "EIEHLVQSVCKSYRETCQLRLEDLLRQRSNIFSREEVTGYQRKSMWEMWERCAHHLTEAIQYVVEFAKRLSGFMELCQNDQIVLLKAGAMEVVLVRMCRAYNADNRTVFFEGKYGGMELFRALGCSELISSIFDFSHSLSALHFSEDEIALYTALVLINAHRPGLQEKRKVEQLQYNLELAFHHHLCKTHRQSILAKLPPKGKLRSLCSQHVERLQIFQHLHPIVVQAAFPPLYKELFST", "data": [{"smiles": "CC(=O)N1CCN(c2ccc(CN(C3CCC3)S(=O)(=O)N(C)c3ccccc3)c(F)c2)CC1", "note": "[Compound 2, 1-(4-(4-acetylpiperazin-1-yl)-2-fluorobenzyl)-1-cyclobutyl-3-methyl-3-phenyl-sulfonamide]", "values": [{"measurement": "IC50", "value": 28, "unit": "nM"}]}, {"smiles": "CC(=O)N1CCN(c2ccc(CN(C3CCC3)S(=O)(=O)Oc3ccccc3)c(F)c2)CC1", "note": "[Compound 10, phenyl 4-(4-acetylpiperazin-1-yl)-2-fluorobenzyl(cyclobutyl)sulfamate]", "values": [{"measurement": "IC50", "value": 7, "unit": "nM"}]}, {"smiles": "CC(C)CN(Cc1ccc(F)cc1)S(=O)(=O)Nc1ccc(OC2CCN(S(C)(=O)=O)CC2)cc1", "note": "[Compound 4, 1-(4-fluorobenzyl)-1-isobutyl-3-(4-((1-(methylsulfonyl)piperidin-4-yl)oxy)phenyl)-sulfamide]", "values": [{"measurement": "IC50", "value": 230, "unit": "nM"}]}, {"smiles": "CS(=O)(=O)N1CCC(Oc2ccc(N3CCN(Cc4ccc(F)cc4)S3(=O)=O)cc2)CC1", "note": "[Compound 3, 2-(4-fluorobenzyl)-5-(4-((1-(methylsulfonyl)piperidin-4-yl)oxy)phenyl)-1,2,5-thiadiazolidine 1,1-dioxide]", "values": [{"measurement": "IC50", "value": 6420, "unit": "nM"}]}]}
